Read-outs that look alike come from different tables or passages of the source.
Experiments:
[1] = tested on: NQO1 specific enzyme activity in BEAS-2B cells (marker for NRF2 activation); test: BEAS-2B NQO1 MTT Assay; type: cell-based; conditions: compound incubated 48 hours, read-out: EC50 (NQO1 specific enzyme activity induction)
Description: BEAS-2B NQO1 MTT Assay NAD(P)H:quinone oxidoreductase 1 (NQO1), also called DT diaphorase, is a homodimeric FAD-containing enzyme that catalyzes obligatory NAD(P)H-dependent two-electron reductions of quinones and protects cells against the toxic and neoplastic effects of free radicals and reactive oxygen species arising from one-electron reductions. The transcription of NQO1 is finely regulated by NRF2, and thus NQO1 activity is a good marker for NRF2 activation. On day one, frozen BEAS-2B cells (ATCC) are thawed in a water bath, counted, and re-suspended at a concentration of 250,000 cells/mL. Fifty microliters of cells are plated in 384 well black clear-bottomed plates. Plates are incubated at 37° C., 5% CO2 overnight. On day two, plates are centrifuged and 50 nL of compound or controls are added to the cells. Plates are then incubated at 37° C., 5% CO2 for 48 hours. On day four, medium is aspirated from the plate and crude cell lysates are made by adding 13 uL of 1× Cell Signaling Technologies lysis buffer with 1 Complete, Mini, EDTA-free Protease Inhibitor Tablet (Roche) for each 10 mL of lysis buffer. After lysis plates are incubated for 20 minutes at room temperature. Two microliters of lysate are removed for use in Cell Titer Glo assay (Promega) and MTT cocktail is prepared (Prochaska et. al. 1998) for measurement of NQO1 activity. Fifty microliters of MTT cocktail is added to each well, plate is centrifuged, and analyzed on an Envision plate reader (Perkin Elmer) using Absorbance 570 nm label for 30 minutes. Product formation is measured kinetically and the pEC50 of NQO1 specific activity induction is calculated by plotting the change in absorbance (Delta OD/min) versus the log of compound concentration followed by 3-parameter fitting. pEC50 is the negative log of the EC50.

[2] = molecular target: T1, Keap1 Kelch domain (321-609) / TAMRA-labeled 16mer NRF2 peptide (ETGE motif) (Homo sapiens, UniProt Q14145); test: NRF2-Keap1 FP Assay (Keap1 Kelch fluorescence polarization); type: binding; conditions: 20 nM Keap1 (321-609), 8 nM Tamra labeled peptide
T1 construct: the Kelch domain (321-609) of Keap1 is used
T1 sequence (Q14145 321-609): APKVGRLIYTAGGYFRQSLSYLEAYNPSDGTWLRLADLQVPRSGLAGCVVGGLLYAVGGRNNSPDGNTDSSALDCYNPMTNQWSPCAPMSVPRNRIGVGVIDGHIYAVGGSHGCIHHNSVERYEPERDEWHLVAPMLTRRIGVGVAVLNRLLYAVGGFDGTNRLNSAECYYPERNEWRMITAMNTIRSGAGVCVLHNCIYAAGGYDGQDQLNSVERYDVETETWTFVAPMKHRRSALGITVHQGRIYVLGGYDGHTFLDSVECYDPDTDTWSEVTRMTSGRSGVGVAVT
Description: One model for the NRF2-Keap1 interaction is through two binding sites in the Neh2 domain on NRF2. The two sites are referred to as the DLG binding motif (latch domain, uM affinity) and the ETGE binding motif (hinge domain, nM affinity). The Keap1 protein consists of an N-terminal region (NTR), a broad complex, tramtrack, and brick a′ brac domain (BTB), an intervening region (IVR), a double glycine repeat domain (DGR or Kelch), and a C-terminal region. The DLG and ETGE motifs of NRF2's Neh2 domain bind to the Kelch domain of Keap1 at different affinities. In the Keap1 Kelch fluorescence polarization (FP) assay, a TAMRA-labeled 16mer peptide (AFFAQLQLDEETGEFL) containing the ETGE motif of NRF2 and the Kelch domain (321-609) of Keap1 is used. The assay determines if a compound interferes with the binding between Keap1 […] and the TAMRA-labeled peptide. Binding of TAMRA-labeled NRF2 peptide to Keap1 (321-609) results in a high FP signal. If a compound interferes with the binding between the peptide and the protein, it will cause the assay signal to decrease. Thus, assay signal is inversely proportional to binding inhibition.
100 nl of 100× compound dose response curves (serial 3-fold dilutions) in DMSO are stamped using an Echo liquid handling system (Labcyte) into 384-well low volume black assay plates (Greiner, #784076), with DMSO in columns 6 and 18. The top concentration of compound is located in columns 1 and 13. Keap1 (321-609) is diluted to 40 nM (2×) in 1× assay buffer (50 mM Tris, pH 8.0, 100 mM NaCl, 5 mM MgCl2, 1 mM DTT, 2 mM CHAPS, and 0.005% BSA) and 5 ul is added using a Multidrop Combi (Thermo Electron Corporation) equipped with a metal tip dispenser to all wells of the compound plate, except column 18. Column 18 receives only 5 ul of assay buffer. Immediately, 5 uL of 16 nM (2×) of Tamra labeled peptide (AFFAQLQLDEETGEFL, 21st Century Biochemicals) is added to all wells of the plate. The plates are spun at 500 rpm for 1 min, incubated for 1 hr at room temperature, and read on an Analyst GT (Molecular Devices) equipped with excitation (530/25 nm) and emission (580/10 nm) filters designed for Tamra probes. A 561 nm dichroic mirror is also used in the Analyst. The final assay concentrations of Keap1 (321-609) and Tamra labeled peptide are 20 nM and 8 nM, respectively. Fluorescence measurements, represented as mP, are used in the transformation of the data. Compound activity is calculated based on percent inhibition, normalized against controls in the assay (Control 1 contains the Tamra peptide and Keap1 (321-609) together (0% response) and control 2 contains the Tamra peptide alone (100% response)). Data analysis is handled using the software package Abase XE (Surrey, United Kingdom. The % inhibition values are calculated by the equation: 100−(100*((compound response−average control 2)/(average control 1−average control2))). For calculation of pIC50s, Abase XE uses a four parameter equation. pIC50 is the negative log of the IC50.

[3] = molecular target: T2, full length Keap1 protein / full length NRF2 protein (Homo sapiens, UniProt Q14145); test: NRF2-Keap1 TR-FRET Low Protein Assay; type: binding; conditions: 1.25 nM Keap1 FlagHis and 2.5 nM biotin-NRF2 added
T2 construct: full length NRF2 protein and full length Keap1 protein (Keap1 exists a dimer) are used; His
T2 sequence (Q14145 whole entry): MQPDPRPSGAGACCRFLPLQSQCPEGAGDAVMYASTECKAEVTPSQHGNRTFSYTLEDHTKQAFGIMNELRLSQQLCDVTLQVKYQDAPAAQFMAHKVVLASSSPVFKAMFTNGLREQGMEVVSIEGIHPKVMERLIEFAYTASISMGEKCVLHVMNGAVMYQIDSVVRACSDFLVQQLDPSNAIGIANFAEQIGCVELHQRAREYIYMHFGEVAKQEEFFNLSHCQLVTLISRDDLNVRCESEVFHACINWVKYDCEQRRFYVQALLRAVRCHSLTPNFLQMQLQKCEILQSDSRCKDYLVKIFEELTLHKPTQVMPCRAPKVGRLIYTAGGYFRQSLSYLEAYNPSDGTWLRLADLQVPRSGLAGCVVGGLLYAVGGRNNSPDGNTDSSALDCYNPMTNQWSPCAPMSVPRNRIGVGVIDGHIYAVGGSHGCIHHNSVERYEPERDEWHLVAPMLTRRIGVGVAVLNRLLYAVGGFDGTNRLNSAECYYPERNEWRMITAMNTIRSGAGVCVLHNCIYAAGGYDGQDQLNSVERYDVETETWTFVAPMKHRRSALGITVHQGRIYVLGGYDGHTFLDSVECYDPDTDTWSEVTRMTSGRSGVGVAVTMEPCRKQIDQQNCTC
Description: NRF2-Keap1 TR-FRET Low Protein Assay In the NRF2-Keap1 TR-FRET (time-resolved fluorescence resonance energy transfer) low protein assay, full length NRF2 protein and full length Keap1 protein (Keap1 exists a dimer) are used. The assay detects a compound's ability to displace the binding of Keap1 […] with biotinylated Avi-NRF2 protein. Biotin-NRF2 binds to streptavidin-europium (a component of the detection mix) and Keap1 […] is recognized by anti-Flag APC (allophycocyanin) antibody (also a component of the detection mix). If binding occurs between the two proteins, there will be an energy transfer from the Eu+3 (donor) at 615 nm to the APC (acceptor) at 665 nm. A potential NRF2 inhibitor will cause a reduction in the TR-FRET signal by interfering with the binding of Keap1 to NRF2. Ten nanoliters of 100× compound dose response curves (serial 3-fold dilutions) in DMSO are stamped using an Echo liquid handling system (Labcyte) into 384-well, low volume, black assay plates (Greiner, #784076), with DMSO in columns 6 and 18. An additional 90 nl DMSO is added to each well, to bring the total volume to 100 nl per well. The top concentration of compound is located in columns 1 and 13, with the serial dilutions going across the row. All reagents are diluted in assay buffer (50 mM Tris, pH 8.0, 5 mM MgCl2, 100 mM NaCl, 0.005% BSA, 1 mM DTT, and 2 mM CHAPS. The BSA, DTT, and CHAPS are added to the assay buffer on the day of assay. […] Wells in column 18 receive 5 ul of assay buffer instead. Plates are centrifuged at 500 rpm for 1 minute, covered with a plate lid, and incubated at 37° C. for 2.25 hours. Plates are then removed from the incubator and allowed to cool to RT for 15 minutes. Five microliters of 2.5 nM biotin-NRF2 protein is then added to all wells of the plates and the plates are spun at 500 rpm for 1 minute, followed by incubating at 4° C. for 1.25 hours. The plates are then allowed to warm to RT for 15 minutes, followed by the addition of 10 ul of detection mix (1 nM Streptavidin Eu+W1024 and 5 ug/ml mouse anti-DYKDDDDK IgG conjugated to SureLight APC antibody; both from Columbia Biosciences) to all wells. Plates are spun at 500 rpm for 1 minute, incubated for 1 hour at RT, and read on an Envision plate reader using a 320 nm excitation filter and 615 nm and 665 nm emission filters. […] Data analysis is handled using the software package Abase XE (Surrey, United Kingdom). […] For calculation of pIC50s, Abase XE uses a four parameter equation. pIC50 is the negative log of the IC50.

Compound | EC50 ([1]; Homo sapiens) [nM] | further results
C[C@H](Oc1cccc(-c2cccc(-n3ncc(C(=O)OCCO)c3[C@@H]3C[C@H]3c3cn(C)nn3)c2)c1)C1CCCCC1 [Example 107, 2-Hydroxyethyl 1-(3′-((S)-1-cyclohexylethoxy)-[1,1′-biphenyl]-3-yl)-5-((1R,2R)-2-(1-methyl-1H-1,2,3-triazol-4-yl)cyclopropyl)-1H-pyrazole-4-carboxylate] | 100 to 1000 | IC50 [2]: > 10000 nM; IC50 [3]: 1000 to 10000 nM
C[C@H](Oc1cccc(-c2cccc(-n3ncc(C(=O)O)c3[C@@H]3C[C@H]3c3cn(C4CC4)nn3)c2)c1)C1CCCCC1 (racemic) [Example 79, 1-(3′-((S)-1-Cyclohexylethoxy)-[1,1′-biphenyl]-3-yl)-5-(trans-2-(1-cyclopropyl-1H-1,2,3-triazol-4-yl)cyclopropyl)-1H-pyrazole-4-carboxylic acid] | 1 to 10 | –
C[C@H](Oc1cccc(-c2cccc(-n3ncc(C(=O)O)c3[C@@H]3C[C@H]3c3c[nH]nn3)c2)c1)C1CCCCC1 (racemic) [Example 93, 5-(trans-2-(1H-1,2,3-Triazol-4-yl)cyclopropyl)-1-(3′-((S)-1-cyclohexylethoxy)-[1,1′-biphenyl]-3-yl)-1H-pyrazole-4-carboxylic Acid] | 1 to 10 | –
C[C@H](Oc1cccc(-c2cccc(-n3ncc(C(=O)O)c3[C@@H]3C[C@H]3c3cn(C)nn3)c2)c1)C1CCCCC1 (racemic) [Example 75, 1-(3′-((S)-1-Cyclohexylethoxy)-[1,1′-biphenyl]-3-yl)-5-(trans-2-(1-methyl-1H-1,2,3-triazol-4-yl)cyclopropyl)-1H-pyrazole-4-carboxylic Acid] | – | EC50 ([1]; Homo sapiens, BEAS-2B, 48 h): 1 to 10 nM
CCC[C@@H]1CCCCN1C(=O)c1cccc(-c2cccc(-n3ncc(C(=O)O)c3[C@@H]3C[C@H]3c3cn(C)nn3)c2)c1 (racemic) [Example 199, 5-((1,2-trans)-2-(1-methyl-1H-1,2,3-triazol-4-yl)cyclopropyl)-1-(3′-((R)-2-propylpiperidine-1-carbonyl)-[1,1′-biphenyl]-3-yl)-1H-pyrazole-4-carboxylic acid] | – | EC50 ([1]; Homo sapiens, BEAS-2B, 48 h): 10 to 100 nM
CC(Cc1cccc(-c2cccc(-n3ncc(C(=O)O)c3[C@@H]3C[C@H]3c3cn(C)nn3)c2)c1)C1CCCCC1 (single isomer, unassigned) [Example 116f, 1-(3′-((R) or (S)-2-Cyclohexylpropyl)-[1,1′-biphenyl]-3-yl)-5-((1R,2R)-2-(1-methyl-1H-1,2,3-triazol-4-yl)cyclopropyl)-1H-pyrazole-4-carboxylic Acid] | – | EC50 [1]: 1 to 10 nM; IC50 [2]: 10 to 100 nM
C[C@H](Oc1cccc(-c2cccc(-n3ncc(C(=O)O)c3[C@@H]3C[C@H]3c3cn(C4CCOCC4)nn3)c2)c1)C1CCCCC1 (racemic) [Example 83, 1-(3′-((S)-1-Cyclohexylethoxy)-[1,1′-biphenyl]-3-yl)-5-(trans-2-(1-(tetrahydro-2H-pyran-4-yl)-1H-1,2,3-triazol-4-yl)cyclopropyl)-1H-pyrazole-4-carboxylic acid] | 1 to 10 | –
C[C@H]1Cc2ccccc2S(=O)(=O)N(Cc2cccc(-c3cccc(-n4ncc(C(=O)O)c4[C@@H]4C[C@H]4c4cn(C)nn4)c3)c2)C1 (racemic) [Example 136, 1-(3′-(((S)-4-methyl-1,1-dioxido-4,5-dihydrobenzo[f][1,2]thiazepin-2(3H)-yl)methyl)-[1,1′-biphenyl]-3-yl)-5-((1,2-trans)-2-(1-methyl-1H-1,2,3-triazol-4-yl)cyclopropyl)-1H-pyrazole-4-carboxylic acid] | 100 to 1000 | –
C[C@H](Oc1cccc(-c2cccc(-n3ncc(C(=O)O)c3[C@@H]3C[C@H]3c3cn(CC(F)(F)F)nn3)c2)c1)C1CCCCC1 (racemic) [Example 89, 1-(3′-((S)-1-Cyclohexylethoxy)-[1,1′-biphenyl]-3-yl)-5-(trans-2-(1-(2,2,2-trifluoroethyl)-1H-1,2,3-triazol-4-yl)cyclopropyl)-1H-pyrazole-4-carboxylic acid] | 1 to 10 | –
C[C@@H]1Cc2ccccc2S(=O)(=O)N(Cc2cccc(-c3cccc(-n4ncc(C(=O)O)c4[C@@H]4C[C@H]4c4cn(C)nn4)c3)c2)C1 (racemic) [Example 137, 1-(3′-(((R)-4-methyl-1,1-dioxido-4,5-dihydrobenzo[f][1,2]thiazepin-2(3H)-yl)methyl)-[1,1′-biphenyl]-3-yl)-5-((1,2-trans)-2-(1-methyl-1H-1,2,3-triazol-4-yl)cyclopropyl)-1H-pyrazole-4-carboxylic acid] | 10 to 100 | –
